Data on 37 compounds can be found in ChEMBL document CHEMBL1137244, “Ureas with histamine H3-antagonist receptor activity--a new scaffold discovered by lead-hopping from cinnamic acid amides” (Bioorg Med Chem Lett, 2006).

Sequence of Cytochrome P450 2D6 (P10635 whole entry): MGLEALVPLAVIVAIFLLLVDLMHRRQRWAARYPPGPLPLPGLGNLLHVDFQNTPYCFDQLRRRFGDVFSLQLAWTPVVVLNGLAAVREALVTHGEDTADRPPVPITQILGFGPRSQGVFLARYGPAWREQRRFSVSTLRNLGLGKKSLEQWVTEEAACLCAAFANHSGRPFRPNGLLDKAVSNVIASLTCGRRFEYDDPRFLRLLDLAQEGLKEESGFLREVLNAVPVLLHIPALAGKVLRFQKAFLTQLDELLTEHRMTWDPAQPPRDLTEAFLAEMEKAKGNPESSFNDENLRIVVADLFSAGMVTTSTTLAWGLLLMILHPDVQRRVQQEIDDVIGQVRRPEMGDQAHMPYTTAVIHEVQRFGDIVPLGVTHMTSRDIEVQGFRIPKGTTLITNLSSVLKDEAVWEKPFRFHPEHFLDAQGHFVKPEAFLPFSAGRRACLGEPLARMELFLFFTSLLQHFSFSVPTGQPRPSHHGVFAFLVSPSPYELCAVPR
Sequence of Histamine H3 receptor (Q9Y5N1 whole entry): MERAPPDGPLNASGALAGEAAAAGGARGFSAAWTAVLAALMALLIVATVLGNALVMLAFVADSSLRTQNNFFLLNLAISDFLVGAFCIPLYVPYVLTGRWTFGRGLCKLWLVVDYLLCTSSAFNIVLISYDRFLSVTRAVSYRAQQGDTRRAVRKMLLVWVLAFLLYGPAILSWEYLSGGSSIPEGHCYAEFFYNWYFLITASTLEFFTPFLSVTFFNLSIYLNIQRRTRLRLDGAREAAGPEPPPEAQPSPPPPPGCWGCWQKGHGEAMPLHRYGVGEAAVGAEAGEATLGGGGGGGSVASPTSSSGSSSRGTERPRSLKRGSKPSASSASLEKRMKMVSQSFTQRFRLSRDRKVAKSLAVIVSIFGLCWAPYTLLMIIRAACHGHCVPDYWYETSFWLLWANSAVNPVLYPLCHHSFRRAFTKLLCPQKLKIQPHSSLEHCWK

The first series concerns the target Histamine H3 receptor (Homo sapiens, UniProt Q9Y5N1). Nature of the series: Binding affinity at histamine H3 receptor by hH3-[35S]GTPgamma[S] binding assay. Type of series: functional.
Settings: not given
As a reminder, the Ki is the dissociation constant of the complex between target and ligand, obtained from inhibition or displacement. Higher therefore signals a looser hold on the target. Take `CCN1CCN(C(=O)NC2Cc3ccccc3C2)CC1`: the Ki is recorded as 44 nM (antagonist).

With `CC(C)N1CCN(C(=O)NCc2ccc(Cl)c(Cl)c2)CC1`, the Ki is given as 20 nM (antagonist). The same measure, in the same setting: then `O=C(NC1Cc2ccccc2C1)N1CCC[C@H]1CN1CCCC1`, with 52 nM (antagonist); and `CC(C)N1CCN(C(=O)NCc2ccc(Oc3ccccc3)cc2)CC1`, with 34 nM (antagonist); and `O=C(NCc1ccc(-c2ccccc2)cc1)N1CCC[C@H]1CN1CCCC1`, with 87 nM (antagonist). In the case of `CC(C)N1CCN(C(=O)NC2Cc3ccccc3C2)CC1`, the Ki was 30 nM (antagonist). Consider `CC(C)N1CCN(C(=O)N(C)Cc2ccc(-c3ccccc3)cc2)CC1`, for which the Ki was 37 nM (antagonist). Same read-out and setting: under `O=C(NCc1ccc(Cl)c(Cl)c1)N1CCC[C@H]1CN1CCCC1` stands 47 nM (antagonist).

As to `O=C(NCc1ccc(Cl)c(Cl)c1)N1CCN(C2CCCC2)CC1`, the Ki is reported as 15 nM (antagonist). As for `COc1cccc(CNC(=O)N2CCC[C@H]2CN2CCCC2)c1`, the Ki is on record as 188 nM (antagonist).

`O=C(NC1Cc2ccccc2C1)N1CCN(C2CCCC2)CC1`: the inhibitory constant (Ki) is 29 nM (antagonist).

Consider `COc1ccc(CNC(=O)N2CCC[C@H]2CN2CCCC2)cc1`, for which the Ki is 295 nM (antagonist). Take `O=C(NCc1ccc(Oc2ccccc2)cc1)N1CCC[C@H]1CN1CCCC1`: the Ki was 34 nM (antagonist). On the same count and under the same terms, then `O=C(NCCc1ccccc1)N1CCC[C@H]1CN1CCCC1`, with 226 nM (antagonist); and `O=C(/C=C/c1ccc(Cl)cc1)N1CCC[C@H]1CN1CCCC1`, with 11.2 nM (antagonist); and `O=C(/C=C/c1ccc(OC(F)(F)F)cc1)N1CCC[C@H]1CN1CCCC1`, with 13.4 nM (antagonist). Still for that read-out and setting: under `O=C(NCC1CCCCC1)N1CCC[C@H]1CN1CCCC1` stands 458 nM (antagonist).

Consider `O=C(NCc1cccc(C(F)(F)F)c1)N1CCC[C@H]1CN1CCCC1`, for which the Ki was 117 nM (antagonist).

With `O=C(NCc1ccc(Oc2ccccc2)cc1)N1CCN(C2CCCC2)CC1`, the Ki is given as 38 nM (antagonist). For `O=C(NCc1ccc(OC(F)(F)F)cc1)N1CCC[C@H]1CN1CCCC1`, the Ki is given as 121 nM (antagonist). The same measure, in the same setting: then `NCc1ccc(CNC(=O)N2CCC[C@H]2CN2CCCC2)cc1`, with 109 nM (antagonist); and `NCc1cccc(CNC(=O)N2CCC[C@H]2CN2CCCC2)c1`, with 78 nM (antagonist). As to `CCN1CCN(C(=O)N[C@@H]2C[C@H]2c2ccccc2)CC1`, the Ki is on record as 40 nM (antagonist). On to `O=C(NCc1ccccc1)N1CCC[C@H]1CN1CCCC1`, for which the Ki was 196 nM (antagonist).

Regarding `O=C(NCc1ccccc1)N1CCN(C2CCCC2)CC1`, the Ki was 94 nM (antagonist). Regarding `O=C(NCc1ccc(Cl)cc1)N1CCC[C@H]1CN1CCCC1`, the Ki was 165 nM (antagonist).

Turning to `O=C(/C=C/c1ccc(-c2ccccc2)cc1)N1CCC[C@H]1CN1CCCC1`, the Ki is given as 3.7 nM (antagonist).

The target of another series is T1, Cytochrome P450 1A2 (Homo sapiens, UniProt P05177).
T1 sequence (P05177 whole entry): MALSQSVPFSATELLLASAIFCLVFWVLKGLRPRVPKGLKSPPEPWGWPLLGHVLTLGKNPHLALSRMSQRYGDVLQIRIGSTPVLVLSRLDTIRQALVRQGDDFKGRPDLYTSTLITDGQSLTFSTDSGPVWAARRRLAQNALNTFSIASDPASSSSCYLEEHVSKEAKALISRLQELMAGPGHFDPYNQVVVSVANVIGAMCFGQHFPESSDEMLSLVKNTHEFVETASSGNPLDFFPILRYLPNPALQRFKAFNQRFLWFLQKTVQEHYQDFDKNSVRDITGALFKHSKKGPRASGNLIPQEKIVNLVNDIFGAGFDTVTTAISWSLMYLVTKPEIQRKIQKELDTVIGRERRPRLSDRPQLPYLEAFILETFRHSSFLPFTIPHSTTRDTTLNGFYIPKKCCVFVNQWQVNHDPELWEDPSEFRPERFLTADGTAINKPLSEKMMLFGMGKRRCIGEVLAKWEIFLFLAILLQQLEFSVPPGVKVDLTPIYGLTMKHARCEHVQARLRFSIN
Assay: not given
Settings: not given
By IC50 is commonly meant the midpoint of a concentration-inhibition curve. The low end stands for greater potency, the high end for weaker potency. `CC(C)N1CCN(C(=O)N2CCC(NC(=O)C3CCCC3)CC2)CC1` gave an IC50 of over 25 µM. Consider `CC(C)N1CCN(C(=O)N2CCC(C(=O)N3CC4CCC(CC4)C3)CC2)CC1`, for which the IC50 is over 25 µM. The compound `CC(C)N1CCN(C(=O)N2CCC(C(=O)OC(C)(C)C)CC2)CC1` gave an IC50 of over 25 µM.

For another series, the target named is Cytochrome P450 3A4 (Homo sapiens, UniProt P08684).
Sequence of Cytochrome P450 3A4 (P08684 whole entry): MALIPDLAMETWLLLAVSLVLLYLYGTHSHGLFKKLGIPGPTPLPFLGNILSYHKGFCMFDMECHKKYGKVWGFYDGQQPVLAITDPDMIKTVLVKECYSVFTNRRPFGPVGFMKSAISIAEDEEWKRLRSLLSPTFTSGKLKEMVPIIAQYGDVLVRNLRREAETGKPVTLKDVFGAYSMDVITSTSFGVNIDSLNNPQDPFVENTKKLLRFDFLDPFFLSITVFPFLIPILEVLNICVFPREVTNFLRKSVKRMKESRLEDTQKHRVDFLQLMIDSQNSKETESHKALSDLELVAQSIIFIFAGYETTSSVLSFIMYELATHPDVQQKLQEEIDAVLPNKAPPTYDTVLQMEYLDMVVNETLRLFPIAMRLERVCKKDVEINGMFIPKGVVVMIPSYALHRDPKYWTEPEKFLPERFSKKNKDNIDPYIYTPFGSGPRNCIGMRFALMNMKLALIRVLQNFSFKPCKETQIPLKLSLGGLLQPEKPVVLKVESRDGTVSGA
Assay: not given
Settings: not given
Compound `CC(C)N1CCN(C(=O)N2CCC(NC(=O)C3CCCC3)CC2)CC1` registered an IC50 of over 25 µM. Same read-out and setting: then `CC(C)N1CCN(C(=O)N2CCC(C(=O)N3CC4CCC(CC4)C3)CC2)CC1`, with over 25 µM; and `CC(C)N1CCN(C(=O)N2CCC(C(=O)OC(C)(C)C)CC2)CC1`, with over 25 µM.

A further series concerns the target Cytochrome P450 2D6 (Homo sapiens, UniProt P10635).
Assay: not given
Settings: not given
Consider `CC(C)N1CCN(C(=O)N2CCC(NC(=O)C3CCCC3)CC2)CC1`, for which half-maximal inhibition (IC50) required 17 µM. As to `CC(C)N1CCN(C(=O)N2CCC(C(=O)N3CC4CCC(CC4)C3)CC2)CC1`, the IC50 was over 25 µM. Same read-out and setting: under `CC(C)N1CCN(C(=O)N2CCC(C(=O)OC(C)(C)C)CC2)CC1` stands over 25 µM.

In a further series the target is hERG (KCNH2) (Homo sapiens, UniProt Q12809). Nature of the series: in vitro. Conditions: HEK293 cells that express hERG, probe [3H]astemizole. A general note: hERG is a cardiac potassium channel; its block is linked to QT prolongation.
Sequence of hERG (KCNH2) (Q12809 whole entry): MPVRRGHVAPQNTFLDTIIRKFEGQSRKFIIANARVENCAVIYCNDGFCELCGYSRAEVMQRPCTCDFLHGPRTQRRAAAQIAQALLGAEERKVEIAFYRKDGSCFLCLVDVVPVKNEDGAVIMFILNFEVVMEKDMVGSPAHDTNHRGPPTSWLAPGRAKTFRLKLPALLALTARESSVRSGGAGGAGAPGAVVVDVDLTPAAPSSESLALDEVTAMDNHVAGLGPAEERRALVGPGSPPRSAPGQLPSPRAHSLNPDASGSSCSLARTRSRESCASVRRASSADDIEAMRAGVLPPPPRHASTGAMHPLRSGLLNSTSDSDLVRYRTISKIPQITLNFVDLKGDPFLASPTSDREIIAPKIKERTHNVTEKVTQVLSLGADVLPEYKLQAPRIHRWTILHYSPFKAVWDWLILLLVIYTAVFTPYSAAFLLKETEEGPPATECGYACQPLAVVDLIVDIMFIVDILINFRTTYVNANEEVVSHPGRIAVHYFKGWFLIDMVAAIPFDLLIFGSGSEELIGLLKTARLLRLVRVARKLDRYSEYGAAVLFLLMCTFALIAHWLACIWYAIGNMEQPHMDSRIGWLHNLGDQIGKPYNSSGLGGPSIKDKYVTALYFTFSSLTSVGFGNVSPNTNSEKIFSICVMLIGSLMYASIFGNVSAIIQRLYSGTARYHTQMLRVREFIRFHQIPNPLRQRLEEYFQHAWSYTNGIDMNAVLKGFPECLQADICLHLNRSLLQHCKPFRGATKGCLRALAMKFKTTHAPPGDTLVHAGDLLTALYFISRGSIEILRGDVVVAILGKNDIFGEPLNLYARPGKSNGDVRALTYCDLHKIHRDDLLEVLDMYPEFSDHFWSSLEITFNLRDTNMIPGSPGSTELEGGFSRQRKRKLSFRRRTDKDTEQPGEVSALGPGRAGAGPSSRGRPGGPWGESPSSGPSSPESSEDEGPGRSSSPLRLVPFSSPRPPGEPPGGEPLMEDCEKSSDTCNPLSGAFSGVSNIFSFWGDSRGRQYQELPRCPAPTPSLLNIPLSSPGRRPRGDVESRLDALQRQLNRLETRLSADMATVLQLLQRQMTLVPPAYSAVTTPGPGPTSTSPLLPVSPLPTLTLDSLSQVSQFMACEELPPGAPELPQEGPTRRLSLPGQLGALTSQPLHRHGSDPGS
As a reminder, the inhibition is how much of the control response was suppressed. For the compound `CC(C)N1CCN(C(=O)N(C)Cc2ccc(-c3ccccc3)cc2)CC1`, testing at 10 µM gave an inhibition of 55%. `CN(Cc1ccc(-c2ccccc2)cc1)C(=O)N1CCC[C@H]1CN1CCCC1` showed an inhibition at 10 µM of 66%.

Regarding `O=C(N1CCN(C2CC2)CC1)N1Cc2ccccc2C1`, the inhibition at 10 µM was 16%.

On to `O=C(N1CCN(C2CCCC2)CC1)N1Cc2ccccc2C1`, for which testing at 10 µM gave an inhibition of 45%. `O=C(N1Cc2ccccc2C1)N1CCC[C@H]1CN1CCCC1`: the inhibition at 10 µM is 26%. For `CC(C)N1CCN(C(=O)N2CCC(C(=O)OC(C)(C)C)CC2)CC1`, 10 µM produced 9% inhibition. Compound `COc1cc2c(cc1OC)CN(C(=O)N1CCN(C(C)C)CC1)CC2` gave an inhibition at 10 µM of 8%.

The series is the same for the next values; noted with them: hek293.
Compound `CC(C)N1CCN(C(=O)N2CCC(NC(=O)C3CCCC3)CC2)CC1` yielded an inhibition at 10 µM of 6%. Turning to `CC(C)N1CCN(C(=O)N2CC=C(c3ccccc3)CC2)CC1`, at 10 µM the inhibition was 31%. For the compound `CC(C)N1CCN(C(=O)N2CCC(C(=O)N3CC4CCC(CC4)C3)CC2)CC1`, the inhibition at 10 µM is 8%. In turn, `CC(C)N1CCN(C(=O)N2CCC(Cc3ccccc3)CC2)CC1` returned an inhibition at 10 µM of 21%.
